Data on 22 molecules can be found in US12667572B2, “Tricyclic compounds useful in the treatment of cancer, autoimmune and inflammatory disorders” (SCHRÖDINGER, INC., priority 2021, dated 2026).

The target of this experiment is T1, full-length MALT1 protein His-MALT1(1-824) (Homo sapiens, UniProt Q9UDY8).
T1 construct: full-length MALT1 protein His-MALT1(1-824); His (N); made in house; host or cells: baculovirus-infected insect cells
T1 sequence (Q9UDY8 1-824): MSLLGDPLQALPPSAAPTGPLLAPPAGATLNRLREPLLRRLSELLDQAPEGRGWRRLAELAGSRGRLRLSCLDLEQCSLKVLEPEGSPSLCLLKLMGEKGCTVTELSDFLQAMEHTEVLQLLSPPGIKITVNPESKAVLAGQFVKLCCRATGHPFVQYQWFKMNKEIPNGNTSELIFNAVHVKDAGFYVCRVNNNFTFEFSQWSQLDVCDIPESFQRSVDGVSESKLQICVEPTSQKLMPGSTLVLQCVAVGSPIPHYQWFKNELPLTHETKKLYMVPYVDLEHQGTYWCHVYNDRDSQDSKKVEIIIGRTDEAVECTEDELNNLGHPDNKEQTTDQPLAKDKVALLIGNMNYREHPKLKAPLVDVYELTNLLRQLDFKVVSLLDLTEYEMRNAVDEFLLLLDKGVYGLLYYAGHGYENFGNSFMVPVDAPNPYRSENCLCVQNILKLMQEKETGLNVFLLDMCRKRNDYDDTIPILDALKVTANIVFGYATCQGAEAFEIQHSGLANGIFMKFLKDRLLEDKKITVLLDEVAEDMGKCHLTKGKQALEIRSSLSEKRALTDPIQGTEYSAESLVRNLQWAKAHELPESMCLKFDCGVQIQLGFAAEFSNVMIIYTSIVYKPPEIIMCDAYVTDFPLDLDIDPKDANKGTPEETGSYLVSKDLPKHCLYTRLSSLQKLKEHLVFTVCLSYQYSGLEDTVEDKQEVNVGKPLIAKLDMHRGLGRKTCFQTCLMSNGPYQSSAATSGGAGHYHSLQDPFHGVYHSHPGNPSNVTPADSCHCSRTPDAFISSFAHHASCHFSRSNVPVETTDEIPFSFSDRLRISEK
In words: MALT1 protease assay, Assay 2 (1 nM MALT1, Ac-LRSR-AMC substrate). The experiment is classed as biochemical. Particulars: 1 nM MALT1, 50 μM Ac-LRSR-AMC, 2 h pre-incubation, 8 hr incubation at RT. Summed up:
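Compounds (0.1% DMSO final) sat 2 h at RT with insect-cell-expressed His-MALT1(1-824), in 50 mM Tris pH 7.5, 600 mM sodium citrate, 1 mM DTT, 1 mM EDTA, 0.05% BSA. Cleavage of 50 μM Ac-LRSR-AMC (Km ~100 μM) ran 8 h at RT, read as AMC fluorescence. IC50 and Hill coefficient fitted to % remaining activity.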

A value given as a limit tells only on which side of the number the result lay.

`COc1cnc(C(F)(F)F)cc1NC(=O)C1CC(C)(C)c2c1cnc1cc(F)nn21` (single isomer, unassigned) [Example 93, 2-fluoro-N-(5-methoxy-2-(trifluoromethyl)pyridin-4-yl)-8,8-dimethyl-7,8-dihydro-6H-cyclopenta[e]pyrazolo[1,5-a]pyrimidine-6-carboxamide]: the IC50 (commonly the concentration needed to halve the response being measured) was ≥ 1000 nM. In turn, `CC1(C)CC(C(=O)Nc2cnc(-n3nccn3)c(C#N)c2)c2cnc3cc(F)nn3c21` (single isomer, unassigned) [Example 88, N-(5-cyano-6-(2H-1,2,3-triazol-2-yl)pyridin-3-yl)-2-fluoro-8,8-dimethyl-7,8-dihydro-6H-cyclopenta[e]pyrazolo[1,5-a]pyrimidine-6-carboxamide] registered an IC50 of 10 to 100 nM. In the case of `CC1(C)CC(C(=O)Nc2cnc(OC(F)F)c(C#N)n2)c2cnc3cc(F)nn3c21` (single isomer, unassigned) [Example 86, N-(6-cyano-5-(difluoromethoxy)pyrazin-2-yl)-2-fluoro-8,8-dimethyl-7,8-dihydro-6H-cyclopenta[e]pyrazolo[1,5-a]pyrimidine-6-carboxamide], the IC50 was ≥ 1000 nM. Molecule `O=C(Nc1cnc(-n2nccn2)c(C(F)(F)F)c1)[C@H]1C[C@@]2(CCO2)c2c1cnc1cc(Cl)nn21` (racemic) [Example 116, (trans)-N-(6-(2H-1,2,3-triazol-2-yl)-5˜(trifluoromethyl)pyridin-3-yl)-2-chloro-6,7-dihydrospiro[cyclopenta[e]pyrazolo[1,5-a]pyrimidine-8,2′-oxetane]-6-carboxamide] yielded an IC50 of 100 to 1000 nM. Consider `CC1(C)C[C@@H](C(=O)Nc2cnc(OC(F)F)c(C#N)c2)c2cnc3c(F)c(F)nn3c21` (single isomer, unassigned) [Example 90, N-(5-cyano-6-(difluoromethoxy)pyridin-3-yl)-2,3-difluoro-8,8-dimethyl-7,8-dihydro-6H-cyclopenta[e]pyrazolo[1,5-a]pyrimidine-6-carboxamide], for which the IC50 was ≥ 1000 nM. For `CC1(C)CC(C(=O)Nc2cnc(OC(F)F)c(Cl)c2)c2cnc3cc(Cl)nn3c21` (single isomer, unassigned) [Example 67, 2-chloro-N-(5-chloro-6-(difluoromethoxy)pyridin-3-yl)-8,8-dimethyl-7,8-dihydro-6H-cyclopenta[e]pyrazolo[1,5-a]pyrimidine-6-carboxamide], the IC50 fell in the range of 100 to 1000 nM. Turning to `CC(C)(O)c1ncc(NC(=O)[C@H]2CC3(CCC3)c3c2cnc2cc(F)nn32)cc1C(F)(F)F` (single isomer, unassigned) [Example 152, 2′-fluoro-N-(6-(2-hydroxypropan-2-yl)-5-(trifluoromethyl)pyridin-3-yl)-6′,7′-dihydrospiro[cyclobutane-1,8′-cyclopenta[e]pyrazolo[1,5-a]pyrimidine]-6′-carboxamide], the IC50 was 100 to 1000 nM. As to `O=C(Nc1cnc([C@H](O)C(F)F)c(Cl)c1)[C@H]1CC2(CCC2)c2c1cnc1cc(F)nn21` (single isomer, unassigned) [Example 136, N-(5-chloro-6-(2,2-difluoro-1-hydroxyethyl)pyridin-3-yl)-2′-fluoro-6′,7′-dihydrospiro[cyclobutane-1,8′-cyclopenta[e]pyrazolo[1,5-a]pyrimidine]-6′-carboxamide], the IC50 lay within 100 to 1000 nM.

Turning to `CC1(C)C[C@@H](C(=O)Nc2cnc(-n3nccn3)c(Cl)c2)c2cnc3c(F)c(F)nn3c21` (single isomer, unassigned) [Example 121, N-(5-chloro-6-(2H-1,2,3-triazol-2-yl)pyridin-3-yl)-2,3-difluoro-8,8-dimethyl-7,8-dihydro-6H-cyclopenta[e]pyrazolo[1,5-a]pyrimidine-6-carboxamide], the IC50 was 100 to 1000 nM. Regarding `CC1(C)C[C@H](C(=O)Nc2cnc(C(=O)NC3CC3)c(C(F)F)c2)c2cnc3cc(Cl)nn3c21` (single isomer, unassigned) [Example 173], the IC50 is 10 to 100 nM.

Regarding `O=C(Nc1cnc(C(O)C(F)F)c(Cl)c1)C1CC2(CCC2)c2c1cnc1cc(F)nn21` (single isomer, unassigned) [Example 133, N-(5-chloro-6-(2,2-difluoro-1-hydroxyethyl)pyridin-3-yl)-2′-fluoro-6′,7′-dihydrospiro[cyclobutane-1,8′-cyclopenta[e]pyrazolo[1,5-a]pyrimidine]-6′-carboxamide], the IC50 was ≥ 1000 nM. As to `CC1(C)CC(C(=O)Nc2cnc(-n3nccn3)c(Cl)c2)c2cnc3c(F)cnn3c21` (single isomer, unassigned) [Example 100, N-(5-chloro-6-(2H-1,2,3-triazol-2-yl)pyridin-3-yl)-3-fluoro-8,8-dimethyl-7,8-dihydro-6H-cyclopenta[e]pyrazolo[1,5-a]pyrimidine-6-carboxamide], the IC50 lay within 100 to 1000 nM. For the molecule `CNC(=O)c1ncc(NC(=O)[C@@H]2CC(C)(C)c3c2cnc2cc(Cl)nn32)cc1C(F)(F)F` (single isomer, unassigned) [Example 154, 2-chloro-8,8-dimethyl-N-(6-(methylcarbamoyl)-5-(trifluoromethyl)pyridin-3-yl)-7,8-dihydro-6H-cyclopenta[e]pyrazolo[1,5-a]pyrimidine-6-carboxamide], the IC50 is ≥ 1000 nM. With `Cc1cc(NC(=O)[C@@H]2CC(C)(C)c3c2cnc2cc(Cl)nn32)cnc1-n1nccn1` (single isomer, unassigned) [Example 180], the IC50 was ≥ 1000 nM. With `Cc1cn2ncc3c(c2n1)C(C)(C)C[C@H]3C(=O)Nc1cnc(-n2nccn2)c(Cl)c1` (single isomer, unassigned) [Example 188, N-(5-chloro-6-(2H-1,2,3-triazol-2-yl)pyridin-3-yl)-2,9,9-trimethyl-8,9-dihydro-7H-cyclopenta[d]imidazo[1,2-b]pyridazine-7-carboxamide] the figure was 100 to 1000 nM.

`CC1(C)CC(C(=O)Nc2ccnc(C(F)(F)F)c2)c2cnc3cc(C(F)F)nn3c21` (single isomer, unassigned) [Example 99, 2-(difluoromethyl)-8,8-dimethyl-N-(2-(trifluoromethyl)pyridin-4-yl)-7,8-dihydro-6H-cyclopenta[e]pyrazolo[1,5-a]pyrimidine-6-carboxamide] yielded an IC50 of 100 to 1000 nM. As for `N#Cc1cc(NC(=O)[C@@H]2CC3(CCC3)c3c2cnc2cc(F)nn32)cnc1OC(F)F` (single isomer, unassigned) [Example 102, N-(5-cyano-6-(difluoromethoxy)pyridin-3-yl)-2′-fluoro-6′,7′-dihydrospiro[cyclobutane-1,8′-cyclopenta[e]pyrazolo[1,5-a]pyrimidine]-6′-carboxamide], the IC50 was in the range of 100 to 1000 nM.

In the case of `CC1(C)CC(C(=O)Nc2cnc(-n3cc(C4COC4)nn3)c(Cl)c2)c2cnc3cc(Cl)nn3c21` (stereo not shown) [Example 119, 2-chloro-N-(5-chloro-6-(4-(oxetan-3-yl)-1H-1,2,3-triazol-1-yl)pyridin-3-yl)-8,8-dimethyl-7,8-dihydro-6H-cyclopenta[e]pyrazolo[1,5-a]pyrimidine-6-carboxamide], the 50% inhibitory concentration (IC50) is 100 to 1000 nM. In turn, `CC1(C)CC(C(=O)Nc2cc(C(F)F)c(-c3ccno3)c(=O)[nH]2)c2cnc3cc(Cl)nn3c21` (stereo not shown) [Example 60, 2-chloro-N-(4-(difluoromethyl)-5-(isoxazol-5-yl)-6-oxo-1,6-dihydropyridin-2-yl)-8,8-dimethyl-7,8-dihydro-6H-cyclopenta[e]pyrazolo[1,5-a]pyrimidine-6-carboxamide] registered an IC50 of 100 to 1000 nM. Regarding `CC1(C)CC(C(=O)Nc2cnc(-n3ncc(C#N)n3)c(Cl)c2)c2cnc3cc(Cl)nn3c21` (stereo not shown) [Example 137, 2-chloro-N-(5-chloro-6-(4-cyano-2H-1,2,3-triazol-2-yl)pyridin-3-yl)-8,8-dimethyl-7,8-dihydro-6H-cyclopenta[e]pyrazolo[1,5-a]pyrimidine-6-carboxamide], the IC50 is ≥ 1000 nM. Take `Cc1cc2cc(F)c3c(n2n1)C(C)(C)C[C@H]3C(=O)Nc1cnc(-n2nccn2)c(Cl)c1` (single isomer, unassigned) [Example 156, N-(5-chloro-6-(2H-1,2,3-triazol-2-yl)pyridin-3-yl)-5-fluoro-2,8,8-trimethyl-7,8-dihydro-6H-cyclopenta[e]pyrazolo[1,5-a]pyridine-6-carboxamide]: the IC50 is ≥ 1000 nM. The value for `CC1(C)C[C@@H](C(=O)Nc2cnc(-n3ncc(C4COC4)n3)c(Cl)c2)c2cnc3cc(Cl)nn3c21` (single isomer, unassigned) [Example 110, 2-chloro-N-(5-chloro-6-(4-(oxetan-3-yl)-2H-1,2,3-triazol-2-yl)pyridin-3-yl)-8,8-dimethyl-7,8-dihydro-6H-cyclopenta[e]pyrazolo[1,5-a]pyrimidine-6-carboxamide] was 10 to 100 nM.
